Source: patent US20250011878A1, “METHOD TO DETECT RNA BIOMARKERS” (ITALFARMACO SPA, priority 2021, published 2025)

Assays:
HDAC6 = target: T1, HDAC6 (Mus musculus, UniProt Q9Z2V5); assay: Target engagement: tubulin acetylation in spleen of CT26 tumor bearing mice (western blot); format: in vivo, BALB/c mice; details: 50 mpk os, 8 administrations (Table 9)
T1 construct: Spleens were collected and total splenocytes suspension was prepared; from tissue; host or cells: spleen (splenocytes) of BALB/c mice bearing CT26 tumors
T1 sequence (Q9Z2V5 1-1149): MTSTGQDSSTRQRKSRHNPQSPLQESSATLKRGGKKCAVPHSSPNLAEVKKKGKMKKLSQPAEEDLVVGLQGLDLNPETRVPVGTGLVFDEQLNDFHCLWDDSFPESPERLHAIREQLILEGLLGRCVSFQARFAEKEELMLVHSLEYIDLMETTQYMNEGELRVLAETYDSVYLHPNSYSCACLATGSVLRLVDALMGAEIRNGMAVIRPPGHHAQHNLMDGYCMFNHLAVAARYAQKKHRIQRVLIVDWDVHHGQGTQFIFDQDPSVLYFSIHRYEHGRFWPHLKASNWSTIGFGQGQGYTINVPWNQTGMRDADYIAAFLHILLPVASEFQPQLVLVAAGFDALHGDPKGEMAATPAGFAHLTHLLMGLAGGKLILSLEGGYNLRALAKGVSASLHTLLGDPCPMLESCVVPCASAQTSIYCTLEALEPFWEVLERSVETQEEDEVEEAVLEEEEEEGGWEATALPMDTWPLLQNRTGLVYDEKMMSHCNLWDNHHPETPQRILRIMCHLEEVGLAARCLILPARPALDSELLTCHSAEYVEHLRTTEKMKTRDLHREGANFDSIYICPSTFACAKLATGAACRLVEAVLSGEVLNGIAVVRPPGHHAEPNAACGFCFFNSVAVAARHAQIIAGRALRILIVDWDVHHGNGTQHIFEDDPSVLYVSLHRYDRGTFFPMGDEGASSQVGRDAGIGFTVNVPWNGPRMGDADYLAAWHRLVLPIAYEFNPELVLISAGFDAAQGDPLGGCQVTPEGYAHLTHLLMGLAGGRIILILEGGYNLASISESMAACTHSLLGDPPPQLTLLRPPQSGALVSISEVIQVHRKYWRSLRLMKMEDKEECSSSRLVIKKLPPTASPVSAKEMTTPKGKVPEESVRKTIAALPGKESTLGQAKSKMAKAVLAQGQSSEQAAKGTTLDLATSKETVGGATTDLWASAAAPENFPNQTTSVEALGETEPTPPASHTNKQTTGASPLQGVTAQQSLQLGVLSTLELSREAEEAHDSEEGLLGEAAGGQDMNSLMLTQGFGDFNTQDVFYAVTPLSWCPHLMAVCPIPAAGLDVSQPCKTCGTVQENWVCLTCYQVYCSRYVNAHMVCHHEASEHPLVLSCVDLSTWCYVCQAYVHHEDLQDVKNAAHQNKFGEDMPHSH
Method: (§1) Adult BALB/c mice were injected s.c. with 1×10^6 CT26 tumor cells (diluted to 100 μl with phosphate buffered saline) and treated with anti-PD1 or ITF3756 when the tumor volume reached 75-100 mm^3, to explore the modulation of genes in the tumor microenvironment by RNAseq. Since ITF3756 acts on the PD-1/PD-L1 axis, this approach allows the identification of genes specific and common to both treatments. The overall schedule is described in Table 9.
Whole cell extracts were obtained by lysing mice spleens with Triton Buffer (50Mm Tris-HCl ph 7.5, 250 mM NaCl, 50 mM NaF, 1 mM EDTA pH 8, 0.1% Triton), supplemented with protease and phosphatase inhibitors (Roche, Germany). Proteins were separated by SDS-PAGE, transferred onto PVDF membranes and blocked with PBS-T (Phosphate-buffared saline and 0.1% Tween-20 containing 5% non-fat dry milk for one hour at room temperature (RT). The incubation with primary antibodies was performed for two hours at RT, followed by incubation with the appropriate horseradish peroxidase-conjugated secondary antibody. Detection was performed with ECL Western Blot Reagent (Amerscham). The antibodies used were: mouse anti acetylated tubulin (Sigma, T6793), mouse anti tubulin (Sigma, T6074), goat anti-mouse IgG (H+L)-HRP conjugate (Bio-Rad, 1706516).
Densitometry analysis was performed using ImageJ software. […]
To ascertain HDAC6 inhibition by ITF3756, the spleen of the animals were collected at all sacrifice time points (1 hour, 4 hours, 18 hours and 24 hours). Tubulin acetylation and total tubulin were detected by western blotting.
Tumor bearing animals were sacrificed at various time points after the last administration. Spleens were collected and total splenocytes suspension was prepared. Pelleted cells were lysed to obtain a total protein extract […] by electrophoresis. Tubulin and acetyl-tubulin were detected after western blotting using specific antibodies.

[1] = test system: tumor microenvironment of CT26-bearing animals; assay: Ex-vivo RNAseq gene expression in tumor microenvironment of CT26-bearing mice, responders vs non responders; set-up: species or system BALB/c mice; details: RNAseq total counts
Method: as §1
RNA was extracted from flash frozen tumors using the Qiagen extraction kit and stored at −80° C. A paired-end sequencing was chosen, in which short reads are obtained from ends of DNA fragments for ultra-high-throughput sequencing. Prior to further analysis, a quality check was performed on the sequencing data. All samples contain sequences 75 nucleotides long (75 nt×2).
The RNA-Seq analysis pipeline involved several steps: • 1. Quality Control of the reads, • 2. Removal of low quality reads • 3. Reads spliced Alignment • 4. Transcriptome expression quantification analysis
The sample was mapped on reference Mus musculus genome (mm10) using the bioinformatics tool STAR (version 2.4.0d), with the standard parameters for paired reads. The reference track was the assembly mm10 obtained from Refseq. […] Average mapping ratio was above 93% and Ribosomal content was below 1% for all samples.
The quantification of transcripts expressed for each sequenced sample was performed using Cufflinks. The units of measurement used in Cufflinks is FPKM (Fragments Per Kilobase of transcript per Million mapped reads) and it is meant to be a measure of relative abundance of a transcript/gene in a RNA pool. It is not intended to be used directly for Differential Expression but it is meant to be human readable, and takes into account main technical confounding factors such as millions of reads and gene length.
Responders and non-responders were selected based on tumor volume at day 20. […]
Statistical significance was determined by unpaired t-test using GraphPad software (version 9), p-values […] were considered significant.

## O=C(NO)c1ccc(Cn2nnnc2-c2cccs2)cc1 [ITF3756, N-hydroxy-4-((5-(thiophen-2-yl)-1 H-tetrazol-1-yl)methyl)benzamide]
HDAC6; 1 hour after the last treatment
  tubulin acetylation in spleen: strong increase
HDAC6; 4 hours after the last treatment
  tubulin acetylation in spleen: maintained until 4 hours
HDAC6; 18 hours after the last treatment
  tubulin acetylation in spleen: still high and consistent
HDAC6; 24 hours after the last treatment
  tubulin acetylation in spleen: still detectable, but not in all the animals analysed
[1]; p<0.1
  IRF6 expression in the tumor microenvironment, responders compared to non responders: striking expression upregulation
[1]; unpaired t-test
  CD40 expression in the tumor microenvironment, responders compared to non-responder mice: statistically significant upregulation
  MMP9 expression in the tumor microenvironment, responders compared to non responders: statistically significant reduction
